Results on ten compounds are retold here after PubChem BioAssay (NCI).

What all share (assay): DTP human tumour cell line panel, 48 h
For assay [1], the system named is HOP-62 NSCLC.
Assay [2] deals with UO-31 renal.
The subject of assay [3] is KM12 colon.
Assay [4] relates to NCI-H522 lung.
The test system of assay [5] is HT29 colon.
For assay [6], the system named is SNB-75 CNS.
Assay [7] has as its system MALME-3M melanoma.
Assay [8] relates to NCI-H460 lung.
The test system of assay [9] is HL-60(TB) leukemia.
Assay [10] relates to UACC-62 melanoma.

For orientation: TGI means the concentration at which net growth stops. Read a low TGI as more potent growth arrest. The term GI50 denotes the concentration that inhibits growth by half.

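These data come from cells grown in 96-well plates and exposed to compound for 48 hours at five concentrations. GI50 is the concentration that inhibits growth by half. Definition used: TGI = concentration required for complete inhibition of growth.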 Bounds are passed on as bounds.

As for `COC1C(=O)CCC2(CO2)C1(O)C1(C)OC1CCC(C)C` (stereo not given), the TGI in assay [1], in assay [2], in assay [3], in assay [4], in assay [5] and in assay [6] was > 100 µM in each case. Moreover, the TGI in assay [7], in assay [8], in assay [9] and in assay [10] was > 100 µM throughout.
As to `Cc1cc2occ(C)c(=O)c2c2c1OC(C)(C)S2`, the TGI in assay [1], in assay [2], in [3], in assay [4], in assay [5] and in assay [6] was > 100 µM each time. Besides, the TGI in assay [7], in [8], in assay [9] and in [10] was > 100 µM throughout.
Turning to `O=C1Cc2c(-c3ccccc3)cc(-c3cccc(Cl)c3)nc2-c2ccccc2N1`, the TGI in assay [1] is 4.12 µM; in assay [2], 11.2 µM; in [3] it was > 75.3 µM; in assay [4], 5.1 µM; in assay [5], 5.17 µM; in assay [6], 6.04 µM. In addition, the TGI in [7] is 13.3 µM; in assay [8], 3.71 µM; in assay [9], > 100 µM; in assay [10], 12.2 µM.
On to `CC1(C)C(=O)/C(=C\c2ccco2)C[C@]2(C)[C@H]3CC=C4[C@@H]5C[C@](C)(C(=O)O)CC[C@]5(C)CC[C@@]4(C)[C@]3(C)CC[C@@H]12`, for which the GI50 was 10.1 µM in assay [1]; 5.01 µM in assay [2]; 5.88 µM in assay [3]; 9.26 µM in assay [4]; 11.7 µM in assay [5]; 24.6 µM in [6]. For the same compound, the GI50 in assay [7] is 12.7 µM; in assay [8], 5.45 µM; in assay [9] it was 6.78 µM; in assay [10], 6.49 µM. For the same compound, the TGI is 28.5 µM in [1]; 19.9 µM in assay [2]; 19.5 µM in assay [3]; 25.6 µM in assay [4]; 28.6 µM in [5]; > 100 µM in assay [6]. The TGI in assay [7] came to 29.3 µM; in assay [8], 20.9 µM; in assay [9], 27.2 µM; in assay [10] it was 20.3 µM.
Take `CC(SC1=CC(=O)c2c(O)ccc(O)c2C1=O)C(=O)O` (stereo not given): the TGI in assay [1] was > 100 µM; in assay [2], > 75.4 µM; in [3] it was > 100 µM; in assay [4], 9.79 µM; in [5], > 100 µM; in [6] it was > 75.9 µM. For the same compound, the TGI in [7] was > 64.6 µM; in assay [8], > 100 µM; in assay [9] it was > 41.9 µM; in [10] it was 36.6 µM.
Take `[Cl][Sn]([c]1ccccc1)[c]1ccccc1`: the GI50 in assay [1] is 22.9 µM; in assay [2], 17.2 µM; in assay [3], 12.4 µM; in assay [4], 0.352 µM; in [5] it was 9.99 µM; in [6], 6.18 µM. For the same compound, the GI50 is 2.19 µM in [7], 18.3 µM in [8], 2.29 µM in assay [9] and 3.22 µM in assay [10]. The TGI in [1] is 40.7 µM; in assay [2] it was 30.9 µM; in assay [3], 18 µM; in assay [4] it was 1.89 µM; in [5], 24.2 µM; in assay [6] it was 19.4 µM. The TGI in assay [7] is 4.66 µM; in assay [8], 38.7 µM; in assay [9], 6.46 µM; in assay [10], 9.57 µM.
Consider `CCc1ccc(C2=C(O)C(=O)C(c3ccc(CC)cc3)=C(O)C2=O)cc1`, for which the GI50 in assay [1] was 1.5 µM; in assay [2] it was 1.73 µM; in assay [3], 1.69 µM; in assay [4], 1.51 µM; in assay [5], 2.34 µM; in [6] it was 1.37 µM. Besides, the GI50 in assay [7] is 1.28 µM; in [8] it was 2.06 µM; in [9], 2.6 µM; in assay [10] it was 1.64 µM. Further, the TGI amounted to 3.42 µM in [1]; 4.91 µM in assay [2]; 4.04 µM in [3]; 4.61 µM in assay [4]; 7.79 µM in assay [5]; 4.19 µM in assay [6]. For the same compound, the TGI in assay [7] amounted to 5.4 µM; in assay [8] it was 5 µM; in [9] it was 6.24 µM; in assay [10], 3.63 µM.
As for `CCCc1ccc(N=Cc2cc(OC)c(OC)c(OC)c2)cc1`, the TGI in assay [1], in assay [2], in assay [3], in [4], in [5] and in [6] was > 100 µM each time. The TGI is > 100 µM in assay [7], > 100 µM in [8], > 67.5 µM in assay [9] and > 100 µM in assay [10].
As for `Nc1ccc2c(c1)[O][Sn]([c]1ccccc1)([c]1ccccc1)[O]C2=O`, the GI50 in [1] was 19.6 µM; in assay [2], 12.5 µM; in assay [3], 16.5 µM; in assay [4], 0.592 µM; in assay [5], 12.1 µM; in assay [6], 7.64 µM. Further, the GI50 in [7] was 3.18 µM; in assay [8], 16 µM; in assay [9], 2.64 µM; in assay [10] it was 5.94 µM. The TGI in assay [1] turned out to be 34.9 µM; in assay [2], 26 µM; in assay [3] it was 33.5 µM; in [4] it was 2.36 µM; in assay [5], 26.5 µM; in assay [6] it was 18.9 µM. Moreover, the TGI in assay [7] is 8.22 µM; in assay [8], 33.6 µM; in [9] it was 10.4 µM; in assay [10], 16.3 µM.
As to `Cc1cc(O)cc(C)c1/C=C/c1cncc(C(=O)N(C)C)c1`, the GI50 was > 25 µM in assay [1]; > 25 µM in assay [2]; > 25 µM in assay [3]; > 25 µM in assay [4]; > 25 µM in assay [5]; > 13.7 µM in [6]. In addition, the GI50 in assay [7], in [8], in assay [9] and in assay [10] was > 25 µM each time. The TGI in assay [1], in assay [2], in [3], in assay [4], in assay [5] and in assay [6] was > 25 µM each time. Also, the TGI in assay [7], in assay [8], in [9] and in assay [10] was > 25 µM in each case.
